Data reported in patent US20250197420A1, “MACROCYCLIC COMPOUNDS, COMPOSITIONS, AND METHODS OF USING THEREOF” (Sionna Therapeutics Inc., priority 2022, published 2025).
Read-outs that look alike come from different tables or passages of the source.

Experiments:
[1] = biological target: T1, Purified recombinant NBD1 (Homo sapiens, UniProt P13569); experiment: Aggregation analysis using differential static light scattering (DSLS): thermal stability of NBD1; format: binding; details: NBD1 0.2 mg/ml; Tagg of compound well minus average Tagg of DMSO control wells
T1 construct: Purified recombinant NBD1 was produced using previously described methods; made in house
T1 sequence (P13569 423-646 limits assumed): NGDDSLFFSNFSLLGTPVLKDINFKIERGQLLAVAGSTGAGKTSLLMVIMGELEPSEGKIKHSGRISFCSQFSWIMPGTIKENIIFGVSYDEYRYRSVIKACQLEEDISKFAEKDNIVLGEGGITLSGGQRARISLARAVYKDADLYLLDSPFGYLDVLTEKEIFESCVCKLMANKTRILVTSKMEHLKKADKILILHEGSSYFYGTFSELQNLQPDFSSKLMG
Procedure, shortened: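 Recombinant NBD1 at 0.2 mg/ml in Tris/NaCl/MgCl2 buffer with 2 mM ATP, 2 mM DTT, 1% glycerol, pH 7.6, was incubated with compound and heated at 1 °C/min to 70 °C while static light scattering was monitored. Tagg was taken from the curve inflection point and reported as ΔTagg relative to DMSO controls.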

[2] = tested on: Primary human bronchial epithelial cells from a ΔF508 homozygous CF donor (CF-HBE cells); experiment: TECC24 recording of CFTR-mediated transepithelial chloride transport, AUC fold over benchmark VX-809 @10 μM; format: cell-based; details: 48 hours incubation, AUC of forskolin-stimulated IEQ
Procedure, shortened: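 CF-HBE cells on inserts were treated with compound for 48 h at 36.5 °C, then recorded in current-clamp with benzamil 10 μM, forskolin 10 μM, and finally CFTR inhibitor-172 20 μM in pH 7.4 Hepes saline. Equivalent Cl− current AUC between forskolin and inhibitor addition is expressed as a ratio to VX-809 AUC: A <3, B 3–6, C 6–20.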

Row | Compound | DSLS (ΔTagg) [1] | TECC (test agent AUC divided by VX-809 AUC) [2] | also measured
1 | CN1C(=O)OCc2c(c(F)cc3c2ccn3S(=O)(=O)c2ccccc2)Oc2ccc(F)c(c2)-c2nc(nn2C)C(C)(c2cccc(Br)c2)C/C=C\CC1(C)C (stereo not shown) | – | – | ring closure, isolated yield (from (5-(3-(3-(2-(3-Bromophenyl)pent-4-en-2-yl)-1-methyl-1H-1,2,4-triazol-5-yl)-4-fluorophenoxy)-6-fluoro-1 -(phenylsulfonyl)-NH-indol-4-yl)methyl methyl(2-methylpent-4-en-2-yl)carbamate, rcm bond, 19-membered ring, Grubbs II (0.4 eq), toluene, 5.1 mM, 60.0 °C): 60%
2 | Methyl (2S)-3-[3-[(13E)-22,28-difluoro-3,6,10,10-tetramethyl-12,12-dioxo-]9-(p-tolylsulfonyl)-24-oxa-12A6-thia-3,4,11,19,30-pentazapentacyclo[23.3.1.12,5.015,23.016,20]triaconta-1(29),2(30),4,13,15,17,20,22,25,27-decaen-6-yl]phenyl]-2-methyl-propanoate | – | – | ring closure, isolated yield (cc_pd bond, 18-membered ring, Pd(PtBu3)2/TEA, toluene, 1.75 mM, 100.0 °C): 65%
3 | CN1CC(C)(C)CCC[C@](C)(c2cccc(I)c2)c2nc(n(C)n2)-c2cc(ccn2)Oc2c(F)cc3[nH]ccc3c2/C=C/C1=O | – | – | ring closure, isolated yield (from CNCC(C)(C)CCC[C@](C)(c1cccc(I)c1)c1nc(-c2cc(Oc3c(F)cc4[nH]ccc4c3/C=C/C(=O)O)ccn2)n(C)n1, amide bond, 19-membered ring, 2 steps): 37%
4 | Cn1nc2nc1-c1cc(ccc1F)Oc1c(F)cc3[nH]ccc3c1CCC(=O)NS(=O)(=O)CC=CCC2(C)c1cccc(Br)c1 (stereo not shown) | – | – | ring closure, isolated yield (from C=CCC(C)(c1cccc(Br)c1)c1nc(-c2cc(Oc3c(F)cc4[nH]ccc4c3CCC(=O)NS(=O)(=O)CC=C)ccc2F)n(C)n1, rcm bond, 19-membered ring, Grubbs II (0.2 eq), toluene, 2.4 mM, 65.0 °C, 0.75 h): 60%
5 | Cc1ccc(S(=O)(=O)n2ccc3c4c(c(F)cc32)Oc2ccnc(c2)-c2nc(nn2C)[C@@](C)(c2cccc(I)c2)CCCCC(C)(C)CN(C)C(=O)C4)cc1 | – | – | ring closure, isolated yield (amide bond, 19-membered ring, with chain assembly): 35%
6 | C[C@@H](Cc1cccc(C2(C)CCCC(C)(C)NS(=O)(=O)CCc3c(c(F)cc4[nH]ccc34)Oc3ccc(F)c(c3)-c3nc2nn3C)c1)C(=O)O (stereo partly drawn) [Compound 116, (2S)-3-[3-(22,28-difluoro-3,6,10,10-tetramethyl-12,12-dioxo-24-oxa-12λ6-thia-3,4,11,19,30-pentazapentacyclo[23.3.1.12,5.015,23.016,20]triaconta-1(29),2(30),4,15,17,20,22,25,27-nonaen-6-yl)phenyl]-2-methyl-propanoic acid] | C (a value greater than 10 °C and less than or equal to 25 °C is marked “C”) | B (a value between 3 and 6 is marked “B”) | –
7 | C[C@H](Cc1cccc([C@@]2(C)CCCCC(C)(C)CN(C)C(=O)Cc3c(c(F)cc4[nH]ccc34)Oc3ccnc(c3)-c3nc2nn3C)c1)C(=O)O [Compound 122, (2R)-3-[3-[(6R)-23-fluoro-3,6,11,11,13-pentamethyl-14-oxo-25-oxa-3,4,13,20,29,31-hexazapentacyclo[24.3.1.12,5.016,24.017,21]hentriaconta-1(30),2(31),4,16,18,21,23,26,28-nonaen-6-yl]phenyl]-2-methyl-propanoic acid] | B (a value above 5 °C and less than or equal to 10 °C is marked “B”) | A (a TECC value less than 3 is marked “A”) | –
8 | CCOC(=O)CCc1cccc(C2(C)CCCOC(=O)N(C)C/C=C/c3c(c(F)cc4[nH]ccc34)Oc3ccc(F)c(c3)-c3ncc2[nH]3)c1 (stereo not shown) | – | – | ring closure, isolated yield (from CCC[CH2][Sn](/[CH]=C/CN(C)C(=O)OCCCC(C)(c1cccc(CCC(=O)OCC)c1)c1cnc(-c2cc(Oc3c(F)cc4[nH]ccc4c3Br)ccc2F)[nH]1)([CH2]CCC)[CH2]CCC, cc_pd bond, 19-membered ring): 66%
9 | CN1CC2(CCCC(C)(c3ccccc3)c3cnc([nH]3)-c3cc(ccc3F)Oc3c(F)cc4[nH]ccc4c3CCC1=O)CC2 (stereo not shown) [Compound 35, 23,29-Difluoro-6,12-dimethyl-6-phenyl-spiro[25-oxa-3,12,20,31-tetrazapentacyclo[24.3.1.12,5.016,24.017,21]hentriaconta-1(30),2,4,16,18,21,23,26,28-nonaene-10,1′-cyclopropane]-13-one] | A (an ΔTagg value less than or equal to 5 °C is marked “A”) | A (a TECC value less than 3 is marked “A”) | –
10 | [2H]C([2H])([2H])n1nc2nc1-c1cc(ccc1F)Oc1c(F)cc3[nH]ccc3c1CCC(=O)N(C)CC(C)(C)CCCC2(C)c1cccc(CCC(=O)NS(C)(=O)=O)c1 (single isomer, unassigned) [Compound 79B, 3-[3-[23,29-difluoro-6,10,10,12-tetramethyl-13-oxo-3-(trideuteriomethyl)-25-oxa-3,4,12,20,31-pentazapentacyclo[24.3.1.12,5.016,24.017,21]hentriaconta-1(30),2(31),4,16,18,21,23,26,28-nonaen-6-yl]phenyl]-N-methylsulfonyl-propanamide] | C (a value greater than 10 °C and less than or equal to 25 °C is marked “C”) | C (a value between 6 and 20 is marked “C”) | –
11 | O=C(O)CCc1cccc(C2CCCCCNC(=O)OCc3c(c(F)cc4[nH]ccc34)Oc3ccc(F)c(c3)-c3ncc2[nH]3)c1F (stereo not shown) [Compound 85, 3-[3-(23,29-Difluoro-13-oxo-14,25-dioxa-3,12,20,31-tetrazapentacyclo[24.3.1.12,5.016,24.017,21]hentriaconta-1(30),2,4,16,18,21,23,26,28-nonaen-6-yl)-2-fluoro-phenyl]propanoic acid] | C (a value greater than 10 °C and less than or equal to 25 °C is marked “C”) | B (a value between 3 and 6 is marked “B”) | –
12 | CC1(c2cccc(CCC(=O)O)c2)CCCCCC(=O)NCC(O)Cc2c(c(F)cc3[nH]ccc23)Oc2ccc(F)c(c2)-c2ncc1[nH]2 (stereo not shown) [Compound 110, 3-[3-(24,30-Difluoro-15-hydroxy-6-methyl-12-oxo-26-oxa-3,13,21,32-tetrazapentacyclo[25.3.1.12,5.017,25.018,22]dotriaconta-1(31),2,4,17,19,22,24,27,29-nonaen-6-yl)phenyl]propanoic acid] | C (a value greater than 10 °C and less than or equal to 25 °C is marked “C”) | B (a value between 3 and 6 is marked “B”) | –
13 | CC1(c2cccc(CCC(=O)O)c2)CCCCCC(=O)NCC(=O)Cc2c(c(F)cc3[nH]ccc23)Oc2ccc(F)c(c2)-c2ncc1[nH]2 (stereo not shown) [Compound 111, 3-[3-(24,30-Difluoro-6-methyl-12,15-dioxo-26-oxa-3,13,21,32-tetrazapentacyclo[25.3.1.12,5.017,25.018,22]dotriaconta-1(31),2,4,17,19,22,24,27,29-nonaen-6-yl)phenyl]propanoic acid] | C (a value greater than 10 °C and less than or equal to 25 °C is marked “C”) | C (a value between 6 and 20 is marked “C”) | –
14 | CC1CCC(C)(c2cccc(CCC(=O)O)c2)c2cnc([nH]2)-c2cc(ccc2F)Oc2c(F)cc3[nH]ccc3c2CCNC(=O)OC1 (stereo not shown) [Compound 87, 3-[3-(23,29-Difluoro-6,9-dimethyl-12-oxo-11,25-dioxa-3,13,20,31-tetrazapentacyclo[24.3.1.12,5.016,24.017,21]hentriaconta-1(30),2,4,16(24),17(21),18,22,26,28-nonaen-6-yl)phenyl]propanoic acid] | C (a value greater than 10 °C and less than or equal to 25 °C is marked “C”) | B (a value between 3 and 6 is marked “B”) | –
